One series concerns the target PAR1 (Homo sapiens (Human), UniProt P25116). Conditions: ACS patients, phase III; cited from earlier work.
For series [1], the system named is carotid artery thrombosis. Put plainly: Cynomolgus monkey electrolytic injury-induced carotid artery thrombosis model. The format is in vivo. The conditions noted are these: oral, 1 to 2 hours before the experiment. An excerpt:
The efficacy of the PAR4 antagonists of the present invention in preventing thrombosis can also be measured in a variety of in vivo assays. Exemplary mammals that can provide models of thrombosis and hemostasis to test the effectiveness of the PAR4 antagonists of the present invention as antithrombotic agents include, but are not limited to, guinea pigs and primates. Relevant efficacy models include, but are not limited to, electrolytic injury-induced carotid artery thrombosis, FeCl3-induced carotid artery thrombosis and arteriovenous-shunt thrombosis. […]
On the day of the study, compounds or vehicles were administered orally at 1 to 2 hours before the experiment. […] Blood pressure and heart rate were monitored to maintain normal vital signs.
Carotid blood flow was measured with an appropriately sized TRANSONIC® flow probe and a TRANSONIC® perivascular flowmeter (TS420 Model, Transonic Systems Inc., Ithaca, N.Y.). It was continuously recorded over a 90-min period to monitor thrombosis-induced occlusion. Integrated carotid blood flow was measured by the area under the flow-time curve. It was expressed as percent of total control carotid blood flow, which would result if control blood flow had been maintained continuously for 90 min. […]

Series [2] has as its system carotid artery thrombosis. Nature of the series: cynomolgus monkey electrolytic injury-induced carotid artery thrombosis model. The class given is in vivo. The conditions noted are these: arterial thrombosis model in cynomolgus monkeys.
A further series relates to human washed platelets. Put plainly: Alpha-thrombin induced platelet aggregation assay. Conditions: 0.1 h, read-out: IC50 for the inhibition of platelet aggregation. The class given is cell-based. As for the experimental part: Example D is an alpha-thrombin-induced platelet aggregation assay. Alpha-thrombin activates both PAR1 and PAR4.
Human blood was collected in ACD (85 mM tri-sodium citrate, 78 mM citric acid, 110 mM D-glucose, pH 4.4) at a ratio of 1.4 ml per 10 ml blood. PRP was isolated by centrifugation at 170 g for 14 minutes and platelets were further pelleted by centrifugation at 1300 g for 6 minutes. Platelets were washed once with 10 ml ACD containing 1 mg/ml bovine serum albumin. Platelets were resuspended at ˜2.5×10^8/ml in Tyrode's Buffer (137 mM NaCl, 2 mM KCl, 1.0 mM MgCl2, 1 mM CaCl2, 5 mM glucose, 20 mM HEPES pH 7.4).
The ability of PAR4 antagonist to inhibit platelet aggregation induced by alpha-thrombin was tested using human washed platelets. […] Aggregation was initiated by addition of 1.5 nM alpha-thrombin (Haematologic Technologies, Essex Junction, Vt.) to 300 μl of washed platelets at stirring speed of 1000 rpm. […] IC50 was calculated using vehicle control as 0% inhibition.

Molecules are shown by their SMILES.

PAR1, sequence (P25116 22-425): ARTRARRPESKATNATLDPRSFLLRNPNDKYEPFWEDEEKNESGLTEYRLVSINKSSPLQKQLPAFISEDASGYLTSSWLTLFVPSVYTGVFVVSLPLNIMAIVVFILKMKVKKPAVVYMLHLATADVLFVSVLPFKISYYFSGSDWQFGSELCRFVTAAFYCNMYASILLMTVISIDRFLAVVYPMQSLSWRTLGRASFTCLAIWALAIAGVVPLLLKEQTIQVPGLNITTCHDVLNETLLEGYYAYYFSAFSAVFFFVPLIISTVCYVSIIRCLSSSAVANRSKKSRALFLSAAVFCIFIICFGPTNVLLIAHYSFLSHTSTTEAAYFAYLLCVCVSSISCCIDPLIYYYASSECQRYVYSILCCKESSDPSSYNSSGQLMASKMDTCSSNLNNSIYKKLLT

Regarding `CCOC(=O)N[C@@H]1CC[C@@H]2[C@@H](C1)C[C@H]1C(=O)O[C@H](C)[C@H]1[C@H]2/C=C/c1ccc(-c2cccc(F)c2)cn1` [vorapaxar], on PAR1, the cardiovascular events result is on record as “did not significantly reduce” and the “risk of major bleeding” value is listed as “significantly increased”.
`COc1cc(OCc2csc(-c3ccccc3)n2)c2cc(-c3cn4nc(OC)sc4n3)oc2c1` [Example 3, 2-Methoxy-6-(6-methoxy-4-((2-phenylthiazol-4-yl)methoxy)benzofuran-2-yl)imidazo[2,1-b][1,3,4]thiadiazole]: the “antithrombotic efficacy in electrically-induced arterial thrombus model (dose response, FIG. 1C)” value in series [1] is “in vivo antithrombotic efficacy”. In series [2], the “inhibition of thrombus formation / antithrombotic efficacy” value is “antithrombotic efficacy”. For the same compound, the IC50 (commonly the concentration that gives 50% inhibition) with human washed platelets turned out to be 5 nM.
